In patent US11932624B2, “MDM2 degraders and uses thereof” (Kymera Therapeutics, Inc., priority 2020, dated 2024) one finds IC50 data, which are given here for 34 molecules.

For the first assay, the system named is RS411 cells. The assay is described as follows: Cell Viability CTG Assay (CellTiter Glo) in RS411 cells. The format is cell-based. As to conditions: Homo sapiens, RS4-11, 24 h, duration 1 day. As to the method: Example 23. Cell Viability CTG Assay
Day 0: Compounds or DMSO 60 nL were stamped to the cell plate as the platemap. RS411 cells were centrifuged at 800 rpm for 5 min, suspended with culture medium, and counted with Countess (Invitrogen). The cell density was adjusted to the recommend information. 30 μL of cell solution (1000 cells/well) was added to the assay plate as the platemap and 30 uL of media was added to column 2 and column 23 as the platemap. The plate was spun down briefly. The final concentration of the compounds started at 10 μM (3 fold dilution and 11 doses) and final DMSO concentration was 0.2%. The plate was spun down briefly and incubated at 37° C., 5% CO2 for 1-4 days.
30 μL CellTiter Glo reagent was added to each well and the plate was centrifuged at 1000 rpm for 30 sec. The plate was shaken for 1 min and centrifuged at 1000 rpm for 30 sec. The plate was incubated at RT for 10 min to stabilize the luminescent signal and the luminescence was read by EnVision.
The letter codes for IC50 indicate the concentration of compound required to affect 50% of cells: A (<0.05 μM), B (0.05-0.1 μM), C (0.1-0.5 μM), D (0.5-1.0 μM), and E (>1.0 μM).
Regarding `Cn1c(=O)n(C2CCC(=O)NC2=O)c2ccc(CCCCCNC(=O)[C@H]3CC[C@H](NC(=O)[C@@H]4NC5(CCCCC5)[C@@]5(C(=O)Nc6cc(Cl)ccc65)[C@H]4c4cccc(Cl)c4F)CC3)cc21` (stereo partly drawn) [I-67, (3′R,4'S,5′R)-6″-chloro-4′-(3-chloro-2-fluorophenyl)-N-((1r,4R)-4-((5-(1-(2,6-dioxopiperidin-3-yl)-3-methyl-2-oxo-2,3-dihydro-1H-benzo[d]imidazol-5-yl)pentyl)carbamoyl)cyclohexyl)-2″-oxodispiro[cyclohexane-1,2′-pyrrolidine-3′,3″-indoline]-5′-carboxamide], the IC50 is less than 50 nM.

`Cn1c(=O)n(C2CCC(=O)NC2=O)c2ccc(CN3CCN(C(=O)[C@H]4CC[C@H](NC(=O)C5NC6(CCCCC6)[C@@]6(C(=O)Nc7cc(Cl)ccc76)[C@H]5c5cccc(Cl)c5F)CC4)CC3)cc21` (stereo partly shown) [I-183] displayed an IC50 of less than 50 nM.

In turn, `COc1cc2c(cc1OC(C)C)[C@H](c1ccc(Cl)cc1)N(c1ccc(N(C)C[C@H]3CC[C@H](N4CCN(CCc5ccc6c(c5)n(C)c(=O)n6C5CCC(=O)NC5=O)CC4)CC3)cc1)C(=O)C2` (stereo partly shown) [I-211] came in with an IC50 of less than 50 nM.

Molecule `CN(CCCCCc1ccc2c(c1)n(C)c(=O)n2C1CCC(=O)NC1=O)Cc1ccc(NC(=O)[C@@H]2NC3(CCCCC3)[C@@]3(C(=O)Nc4cc(Cl)ccc43)[C@H]2c2cccc(Cl)c2F)c(F)c1` (stereo partly shown) [I-161] gave an IC50 of less than 50 nM.

The molecule `CN1[C@@H](CN[C@H]2CC[C@H](C(=O)N3CCC(CCc4ccc5c(c4)n(C)c(=O)n5C4CCC(=O)NC4=O)CC3)CC2)[C@H](c2cccc(Cl)c2F)[C@]2(C(=O)Nc3cc(Cl)ccc32)C12CCCCC2` (stereo partly shown) [I-156] had an IC50 of more than 1000 nM.

`CN(CCCCCc1ccc2c(c1)n(C)c(=O)n2C1CCC(=O)NC1=O)C[C@H]1CC[C@H](NC(=O)[C@@H]2NC3(CCCCC3)[C@@]3(C(=O)Nc4cc(Cl)ccc43)[C@H]2c2cccc(Cl)c2F)CC1` (stereo partly shown) [I-93] had an IC50 of less than 50 nM.

Take `COc1cc2c(cc1OC(C)C)C(c1ccc(Cl)cc1)N(c1ccc(N(C)C[C@H]3CC[C@H](N4CCN(CCCCCc5cccc6c5n(C)c(=O)n6C5CCC(=O)NC5=O)C(=O)C4)CC3)cc1)C(=O)C2` (stereo partly shown) [I-192]: the IC50 was less than 50 nM.

The molecule `CN(CCCCCc1ccc2c(c1)n(C)c(=O)n2C1CCC(=O)NC1=O)Cc1ccc(NC(=O)[C@@H]2NC3(CCCCC3)[C@@]3(C(=O)Nc4cc(Cl)ccc43)[C@H]2c2cccc(Cl)c2F)cc1` (stereo partly shown) [I-99] displayed an IC50 of less than 50 nM.

In the case of `C#CCCCCCCCN1C(=O)[C@@]2(c3ccc(Cl)cc31)[C@@H](c1cccc(Cl)c1F)[C@H](C(=O)O)N(C)C21CCCCC1` [I-129, (3′R,4'S,5′R)-6″-chloro-4′-(3-chloro-2-fluorophenyl)-1′-methyl-1″-(non-8-yn-1-yl)-2″-oxodispiro[cyclohexane-1,2′-pyrrolidine-3′,3″-indoline]-5′-carboxylic acid], the IC50 was more than 1000 nM.

On to `O=C1CCN(c2cnc3cc(C4CCN(C(=O)c5ccc(NC(=O)[C@@H]6NC7(CCCCC7)[C@@]7(C(=O)Nc8cc(Cl)ccc87)[C@H]6c6cccc(Cl)c6F)cc5)CC4)ccn23)C(=O)N1` [I-144], for which the IC50 lay in the range of 50 to 100 nM.

The molecule `Cn1c(=O)n(C2CCC(=O)NC2=O)c2ccc(CCC3CCN(Cc4ccc(NC(=O)[C@@H]5NC6(CCCCC6)[C@@]6(C(=O)Nc7cc(Cl)ccc76)[C@H]5c5cccc(Cl)c5F)cc4)CC3)cc21` (stereo partly shown) [I-102] returned an IC50 of less than 50 nM.

The molecule `Cn1c(=O)n(C2CCC(=O)NC2=O)c2cccc(CN3CCC(OC4CCN(Cc5ccc(NC(=O)[C@@H]6NC7(CCCCC7)[C@@]7(C(=O)Nc8cc(Cl)ccc87)[C@H]6c6cccc(Cl)c6F)cc5)CC4)CC3)c21` (stereo partly shown) [I-139] returned an IC50 of less than 50 nM.

`Cn1c(=O)n(C2CCC(=O)NC2=O)c2ccc(CCCN3CCN(C[C@H]4CC[C@H](NC(=O)[C@@H]5NC6(CCCCC6)[C@@]6(C(=O)Nc7cc(Cl)ccc76)[C@H]5c5cccc(Cl)c5F)CC4)CC3)cc21` (stereo partly shown) [I-114] had an IC50 of less than 50 nM.

Turning to `O=C1CCC(N2Cc3c(C#CC4CCN(C(=O)C56CCC(NC(=O)[C@@H]7NC8(CCCCC8)[C@@]8(C(=O)Nc9cc(Cl)ccc98)[C@H]7c7cccc(Cl)c7F)(CC5)CC6)CC4)cccc3C2=O)C(=O)N1` (stereo partly shown) [I-143], the IC50 is less than 50 nM.

Regarding `CN1[C@@H](C(=O)Nc2ccc(C(=O)NCCCCCc3ccc4c(c3)n(C)c(=O)n4C3CCC(=O)NC3=O)cc2)[C@H](c2cccc(Cl)c2F)[C@]2(C(=O)Nc3cc(Cl)ccc32)C12CCCCC2` (stereo partly shown) [I-101], the IC50 was less than 50 nM.

Regarding `CN(CCCCCc1ccc2c(c1)n(C)c(=O)n2C1CCC(=O)NC1=O)Cc1ccc(NC(=O)[C@@H]2NC3(CCCCC3)[C@@]3(C(=O)Nc4cc(Cl)ccc43)[C@H]2c2cccc(Cl)c2F)c2c1OCCO2` (stereo partly shown) [I-210], the IC50 is less than 50 nM.

On to `Cn1c(=O)n(C2CCC(=O)NC2=O)c2cccc(/C=C/C3CCN(C[C@H]4CC[C@H](CNC(=O)[C@@H]5NC6(CCCCC6)[C@@]6(C(=O)Nc7cc(Cl)ccc76)[C@H]5c5cccc(Cl)c5F)CC4)CC3)c21` (stereo partly shown) [I-118], for which the IC50 lay within 50 to 100 nM.

As to `Cn1c(=O)n(C2CCC(=O)NC2=O)c2cccc(OC3CC4(CCN(C(=O)c5ccc(NC(=O)[C@@H]6NC7(CCCCC7)[C@@]7(C(=O)Nc8cc(Cl)ccc87)[C@H]6c6cccc(Cl)c6F)cc5)CC4)C3)c21` (stereo partly shown) [I-44], the IC50 is less than 50 nM.

Take `Cn1c(=O)n(C2CCC(=O)NC2=O)c2cccc(CCC3CC4(CCN(C[C@H]5CC[C@H](NC(=O)[C@@H]6NC7(CCCCC7)[C@@]7(C(=O)Nc8cc(Cl)ccc87)[C@H]6c6cccc(Cl)c6F)CC5)CC4)C3)c21` (stereo partly shown) [I-112]: the IC50 was less than 50 nM.

The molecule `Cn1c(=O)n(C2CCC(=O)NC2=O)c2cccc(C#CC3CCN(Cc4ccc(CNC(=O)[C@@H]5NC6(CCCCC6)[C@@]6(C(=O)Nc7cc(Cl)ccc76)[C@H]5c5cccc(Cl)c5F)cc4)CC3)c21` (stereo partly shown) [I-116] registered an IC50 of more than 1000 nM.

The molecule `CN(CCCOCCCc1cccc2c1n(C)c(=O)n2C1CCC(=O)NC1=O)C(=O)c1ccc(NC(=O)[C@@H]2NC3(CCCCC3)[C@@]3(C(=O)Nc4cc(Cl)ccc43)[C@H]2c2cccc(Cl)c2F)cc1` (stereo partly shown) [I-52] had an IC50 of less than 50 nM.

Consider `CN1[C@@H](C(=O)Nc2ccc(C(=O)NCCCCCc3ccc4c(c3)n(C)c(=O)n4C3CCC(=O)NC3=O)cc2)[C@H](c2cccc(Cl)c2F)[C@]2(C(=O)Nc3cc(Cl)ccc32)C12CCC(C)(C)CC2` (stereo partly shown) [I-81], for which the IC50 was less than 50 nM.

In turn, `Cn1c(=O)n(C2CCC(=O)NC2=O)c2cccc(CN3CCC(OC4CCN(C[C@H]5CC[C@H](NC(=O)[C@@H]6NC7(CCCCC7)[C@@]7(C(=O)Nc8cc(Cl)ccc87)[C@H]6c6cccc(Cl)c6F)CC5)CC4)CC3)c21` (stereo partly shown) [I-113] displayed a 50% inhibitory concentration (IC50) of less than 50 nM.

As to `COc1cc2c(cc1OC(C)C)C(c1ccc(Cl)cc1)N(c1ccc(N(C)C[C@H]3CC[C@H](N(C)C(=O)CCCCc4ccc5c(c4)n(C)c(=O)n5C4CCC(=O)NC4=O)CC3)cc1)C(=O)C2` (stereo partly shown) [I-168], the IC50 is less than 50 nM.

`Cn1c(=O)n(C2CCC(=O)NC2=O)c2ccc(CC[C@H]3CC[C@H](N4CCC(NC(=O)[C@@H]5NC6(CCCCC6)[C@@]6(C(=O)Nc7cc(Cl)ccc76)[C@H]5c5cccc(Cl)c5F)CC4)CC3)cc21` (stereo partly shown) [I-171] gave an IC50 of less than 50 nM.

`Cn1c(=O)n(C2CCC(=O)NC2=O)c2cccc(CCCN3CCN(CCCNC(=O)[C@@H]4NC5(CCCCC5)[C@@]5(C(=O)Nc6cc(Cl)ccc65)[C@H]4c4cccc(Cl)c4F)CC3)c21` (stereo partly shown) [I-141] registered an IC50 of more than 1000 nM.

The assay is the same for the next values; noted with them: Homo sapiens, RS4-11, 96 h, duration 4 days.
Take `Cc1ncsc1-c1ccc(CNC(=O)[C@@H]2C[C@@H](O)CN2C(=O)[C@@H](NC(=O)CCCCCCCNC(=O)c2ccc(NC(=O)[C@@H]3NC4(CCCCC4)[C@@]4(C(=O)Nc5cc(Cl)ccc54)[C@H]3c3cccc(Cl)c3F)cc2)C(C)(C)C)cc1` [I-12]: the IC50 was in the range of 50 to 100 nM.

`COc1cc(C(=O)NCCCC(=O)N[C@H](C(=O)N2C[C@H](O)C[C@H]2C(=O)NCc2ccc(-c3scnc3C)cc2)C(C)(C)C)ccc1NC(=O)[C@@H]1N[C@@H](CC(C)(C)C)[C@](C#N)(c2ccc(Cl)cc2F)[C@H]1c1cccc(Cl)c1F` [I-20] came in with an IC50 of 100 to 500 nM.

For `COc1cc(C(=O)NCCCC#Cc2cccc3c2CN(C2CCC(=O)NC2=O)C3=O)ccc1NC(=O)[C@@H]1N[C@@H](CC(C)(C)C)[C@](C#N)(c2ccc(Cl)cc2F)[C@H]1c1cccc(Cl)c1F` (stereo partly shown) [I-31], the IC50 is less than 50 nM.

In turn, `Cn1c(=O)n(C2CCC(=O)NC2=O)c2ccc(CCCCCNC(=O)c3ccc(NC(=O)[C@@H]4NC5(CCCCC5)[C@@]5(C(=O)Nc6cc(Cl)ccc65)[C@H]4c4cccc(Cl)c4F)cc3)cc21` (stereo partly shown) [I-9] displayed an IC50 of less than 50 nM.

Consider `COc1cc(C(=O)NCCCCCc2ccc3c(c2)n(C)c(=O)n3C2CCC(=O)NC2=O)ccc1NC(=O)[C@@H]1N[C@@H](CC(C)(C)C)[C@](C#N)(c2ccc(Cl)cc2F)[C@H]1c1cccc(Cl)c1F` (stereo partly shown) [I-16], for which the IC50 was less than 50 nM.

In turn, `COc1cc(C(=O)NCCCOCCCN)ccc1NC(=O)[C@@H]1N[C@@H](CC(C)(C)C)[C@](C#N)(c2ccc(Cl)cc2F)[C@H]1c1cccc(Cl)c1F` [I-7] returned an IC50 of more than 1000 nM.

Molecule `Cc1ncsc1-c1ccc(CNC(=O)[C@@H]2C[C@@H](O)CN2C(=O)[C@@H](NC(=O)CCCCCCCNC(=O)C[C@@]2(C)C[C@H](c3cccc(Cl)c3)[C@@H](c3ccc(Cl)cc3)N([C@H](CS(=O)(=O)C(C)C)C(C)C)C2=O)C(C)(C)C)cc1` [I-10] registered an IC50 of 100 to 500 nM.

`CC(C)[C@@H](CS(=O)(=O)C(C)C)N1C(=O)[C@@](C)(CC(=O)NCCCCCCCCCCCNC(=O)C[C@@]2(C)C[C@H](c3cccc(Cl)c3)[C@@H](c3ccc(Cl)cc3)N([C@H](CS(=O)(=O)C(C)C)C(C)C)C2=O)C[C@H](c2cccc(Cl)c2)[C@H]1c1ccc(Cl)cc1` [I-23] displayed an IC50 of more than 1000 nM.
